Assay results from patent US6911431B1 (priority 1989, dated 2005).

Assays:
Lewis lung carcinoma = assay: Inhibition of Lewis lung tumor neovascularization; format: in vivo, C57BL/6 mice
Protocol: Lewis lung carcinoma cells (5×10^7) when injected (0.1 ml) intradermally into both flanks of C57BL/6 mice (day 0) produce a visible highly vascularized tumor nodules within 7 days. By excising the tumor the degree of tumor vascularity may be determined microscopically by counting the number of large vessels radiating from the tumor mass.

[1] = test system: chicken embryo chorioallantoic membrane; assay: Chicken embryo chorioallantoic membrane (CAM) angiogenesis assay; format: in vivo; settings: for Inhibition of Neovascularization Grade/Range / Mean % Inhibition of Neovascularization / Inhibition of Neovascularization Grade/Mean ± SD: 48 hrs; for Inhibition of Neovascularization Grade/Mean ± SD: grade scale 0-4
Protocol: Briefly, eight-day chicken embryos were removed from eggs and placed into sterile petri dishes. Individual filter paper disks were saturated with 7.5 μl of different stock solutions of L-Glu-L-Trp dissolved in sterile 0.14M NaCl to achieve final test concentrations of 0.001, 0.01, 0.1, 1.0, 10, 100, 500, and 1000 μg per disk. Disks were air dried and then inverted onto the surface of the respective embryos.
In this experiment saline served as a negative control and 10 μg/disk of heparin served as a positive control. The pentapeptide Thr-Ala-Glu-Glu-Lys (TAEEK) (SEQ ID NO 7) served as a specificity control, (i.e., for possible nonspecific effects of peptides on neovascularization at the concentrations tested). Nine-12 test disks and a corresponding number of different embryos were employed for each test concentration along with […] (each) positive and negative control embryos.

Sarcoma 180 tumors = assay: Sarcoma 180 tumor size after prophylactic treatment; format: in vivo, Swiss-Webster mice
Protocol: Neovascularization is required for tumor growth. Anti-tumor activity of L-Glu-L-Trp was evaluated at an independent contract research organization. Sarcoma 180 tumors (ATCC CCL-8 CCRF S-180 II) were induced by injecting 2×10^6 cells/0.1 ml im into each rear flank of Swiss-Webster mice. Groups consisted of 10 animals (20 tumors). L-Glu-L-Trp was administered in a single 0.1 ml dose of either 10 μg/kg, 75 μg/kg, 250 μg/kg or 1000 μg/kg. Tumor size was evaluated by surgically removing and weighing the affected limbs, and comparing the weight with the weight of normal control (non-tumor) limbs. The first prophylactic drug regimen (PDR-1) consisted of 5 consecutive daily ip injections commencing on day −5 and ending of day −1. The second prophylactic drug regimen (PDR-2) consisted of 5 consecutive daily im injections to the left rear flank (tumor site) beginning on day −5 and ending on day −1. Sarcoma 180 cells were injected im on day 0. Saline 0.1 ml served as the negative control.

[2] = PDR-1 (ip, day −5 to −1), 10 μg/kg
[3] = PDR-1 (ip, day −5 to −1), 75 μg/kg
[4] = PDR-1 (ip, day −5 to −1), 250 μg/kg
[5] = PDR-1 (ip, day −5 to −1), 1000 μg/kg
[6] = PDR-2 (im left flank), 10 μg/kg
[7] = PDR-2 (im left flank), 75 μg/kg
[8] = PDR-2 (im left flank), 250 μg/kg
[9] = PDR-2 (im left flank), 1000 μg/kg
[10] = PDR-2 (im left rear flank, day −5 to −1), 10 μg/kg
[11] = PDR-2 (im left rear flank, day −5 to −1), 75 μg/kg
[12] = PDR-2 (im left rear flank, day −5 to −1), 250 μg/kg
[13] = PDR-2 (im left rear flank, day −5 to −1), 1000 μg/kg

O=P1(N(CCCl)CCCl)NCCCO1 (stereo not shown) [Cytoxan, reference compound]
No. Vessels (Mean ± S.D.) (Lewis lung carcinoma; Dose 200 (column head μg/kg/dose), administered only on day 2): 9 ± 5

L-Glu-L-Trp
Inhibition of Neovascularization Grade/Range ([1]; 0.001 μg/disk): 0-2
Mean % Inhibition of Neovascularization ([1]; 0.001 μg/disk): 33 ± 20%
Inhibition of Neovascularization Grade/Mean ± SD ([1]; 0.001 μg/disk): 1.3 ± 0.82
decrease in vascularity in embryos ([1]; 10 ng-1000 μg in saline): 30-88%
Inhibition of Neovascularization Grade/Range ([1]; 0.01 μg/disk): 1-2
Mean % Inhibition of Neovascularization ([1]; 0.01 μg/disk): 38 ± 13%
Inhibition of Neovascularization Grade/Mean ± SD ([1]; 0.01 μg/disk): 1.5 ± 0.53
Inhibition of Neovascularization Grade/Range ([1]; 0.1 μg/disk): 0-3
Mean % Inhibition of Neovascularization ([1]; 0.1 μg/disk): 48 ± 23%
Inhibition of Neovascularization Grade/Mean ± SD ([1]; 0.1 μg/disk): 1.9 ± 0.88
Inhibition of Neovascularization Grade/Range ([1]; 1 μg/disk): 1-4
Mean % Inhibition of Neovascularization ([1]; 1 μg/disk): 58 ± 23%
Inhibition of Neovascularization Grade/Mean ± SD ([1]; 1 μg/disk): 2.33 ± 0.89
Inhibition of Neovascularization Grade/Range ([1]; 10 μg/disk): 1-4
Mean % Inhibition of Neovascularization ([1]; 10 μg/disk): 78 ± 28%
Inhibition of Neovascularization Grade/Mean ± SD ([1]; 10 μg/disk): 3.09 ± 1.14
Inhibition of Neovascularization Grade/Range ([1]; 100 μg/disk): 3-4
Mean % Inhibition of Neovascularization ([1]; 100 μg/disk): 85 ± 18%
Inhibition of Neovascularization Grade/Mean ± SD ([1]; 100 μg/disk): 3.44 ± 0.73
Inhibition of Neovascularization Grade/Range ([1]; 500 μg/disk): 1-4
Mean % Inhibition of Neovascularization ([1]; 500 μg/disk): 60 ± 20%
Inhibition of Neovascularization Grade/Mean ± SD ([1]; 500 μg/disk): 2.4 ± 0.84
Inhibition of Neovascularization Grade/Range ([1]; 1000 μg/disk): 2-4
Mean % Inhibition of Neovascularization ([1]; 1000 μg/disk): 83 ± 20%
Inhibition of Neovascularization Grade/Mean ± SD ([1]; 1000 μg/disk): 3.3 ± 0.82
No. Vessels (Mean ± S.D.) (Lewis lung carcinoma; 125 μg/kg/dose im daily for 5 days): 6 ± 3
No. Vessels (Mean ± S.D.) (Lewis lung carcinoma; 250 μg/kg/dose im daily for 5 days): 7 ± 2
No. Vessels (Mean ± S.D.) (Lewis lung carcinoma; 500 μg/kg/dose im daily for 5 days): 9 ± 4
No. Vessels (Mean ± S.D.) (Lewis lung carcinoma; 1000 μg/kg/dose im daily for 5 days): 12 ± 5
No. Vessels (Mean ± S.D.) (Lewis lung carcinoma; 2000 μg/kg/dose im daily for 5 days): 17 ± 7
Mean Tumor Weight Left (Sarcoma 180 tumors; PDR-1 (ip), 10 μg/kg): 3.0
Percent of Control Tumor Weight Left (Sarcoma 180 tumors; PDR-1 (ip), 10 μg/kg): 120%
Mean Tumor Weight Right (Sarcoma 180 tumors; PDR-1 (ip), 10 μg/kg): 2.9
Percent of Control Tumor Weight Right (Sarcoma 180 tumors; PDR-1 (ip), 10 μg/kg): 126%
Mean Tumor Weight Left (Sarcoma 180 tumors; PDR-1 (ip), 75 μg/kg): 3.0
Percent of Control Tumor Weight Left (Sarcoma 180 tumors; PDR-1 (ip), 75 μg/kg): 120%
Mean Tumor Weight Right (Sarcoma 180 tumors; PDR-1 (ip), 75 μg/kg): 3.0
Percent of Control Tumor Weight Right (Sarcoma 180 tumors; PDR-1 (ip), 75 μg/kg): 130%
Mean Tumor Weight Left (Sarcoma 180 tumors; PDR-1 (ip), 250 μg/kg): 2.3
Percent of Control Tumor Weight Left (Sarcoma 180 tumors; PDR-1 (ip), 250 μg/kg): 92%
Mean Tumor Weight Right (Sarcoma 180 tumors; PDR-1 (ip), 250 μg/kg): 1.9
Percent of Control Tumor Weight Right (Sarcoma 180 tumors; PDR-1 (ip), 250 μg/kg): 83%
Mean Tumor Weight Left (Sarcoma 180 tumors; PDR-1 (ip), 1000 μg/kg): 1.3
Percent of Control Tumor Weight Left (Sarcoma 180 tumors; PDR-1 (ip), 1000 μg/kg): 52%
Mean Tumor Weight Right (Sarcoma 180 tumors; PDR-1 (ip), 1000 μg/kg): 1.0
Percent of Control Tumor Weight Right (Sarcoma 180 tumors; PDR-1 (ip), 1000 μg/kg): 43%
Leg Weight Left (Sarcoma 180 tumors; [2]): 4.2 ± 0.9 g
Leg Weight Right (Sarcoma 180 tumors; [2]): 4.1 ± 0.7 g
Leg Weight Left (Sarcoma 180 tumors; [3]): 4.2 ± 0.8 g
Leg Weight Right (Sarcoma 180 tumors; [3]): 4.2 ± 0.8 g
Leg Weight Left (Sarcoma 180 tumors; [4]): 3.5 ± 1.0 g
Leg Weight Right (Sarcoma 180 tumors; [4]): 3.1 ± 0.6 g
Leg Weight Left (Sarcoma 180 tumors; [5]): 2.5 ± 0.7 g
Leg Weight Right (Sarcoma 180 tumors; [5]): 2.2 ± 0.5 g
Mean Tumor Weight Left (Sarcoma 180 tumors; [6]): 2.4
Percent of Control Tumor Weight Left (Sarcoma 180 tumors; [6]): 96%
Mean Tumor Weight Right (Sarcoma 180 tumors; [6]): 2.6
Percent of Control Tumor Weight Right (Sarcoma 180 tumors; [6]): 113%
Mean Tumor Weight Left (Sarcoma 180 tumors; [7]): 2.4
Percent of Control Tumor Weight Left (Sarcoma 180 tumors; [7]): 96%
Mean Tumor Weight Right (Sarcoma 180 tumors; [7]): 3.3
Percent of Control Tumor Weight Right (Sarcoma 180 tumors; [7]): 143%
Mean Tumor Weight Left (Sarcoma 180 tumors; [8]): 1.8
Percent of Control Tumor Weight Left (Sarcoma 180 tumors; [8]): 72%
Mean Tumor Weight Right (Sarcoma 180 tumors; [8]): 1.1
Percent of Control Tumor Weight Right (Sarcoma 180 tumors; [8]): 48%
Mean Tumor Weight Left (Sarcoma 180 tumors; [9]): 1.2
Percent of Control Tumor Weight Left (Sarcoma 180 tumors; [9]): 48%
Mean Tumor Weight Right (Sarcoma 180 tumors; [9]): 1.3
Percent of Control Tumor Weight Right (Sarcoma 180 tumors; [9]): 57%
Leg Weight Left (Sarcoma 180 tumors; [10]): 3.6 ± 0.7 g
Leg Weight Right (Sarcoma 180 tumors; [10]): 3.8 ± 0.7 g
Leg Weight Left (Sarcoma 180 tumors; [11]): 3.6 ± 0.7 g
Leg Weight Right (Sarcoma 180 tumors; [11]): 3.5 ± 0.3 g
Leg Weight Left (Sarcoma 180 tumors; [12]): 3.0 ± 0.1 g
Leg Weight Right (Sarcoma 180 tumors; [12]): 2.3 ± 0.5 g
Leg Weight Left (Sarcoma 180 tumors; [13]): 2.4 ± 0.5 g
Leg Weight Right (Sarcoma 180 tumors; [13]): 2.5 ± 0.5 g

Thr-Ala-Glu-Glu-Lys (TAEEK) [pentapeptide specificity control]
Inhibition of Neovascularization Grade/Range ([1]; 0.001 μg/disk): 0-0
Mean % Inhibition of Neovascularization ([1]; 0.001 μg/disk): 0%
Inhibition of Neovascularization Grade/Mean ± SD ([1]; 0.001 μg/disk): 0 ± 0
Inhibition of Neovascularization Grade/Range ([1]; 0.01 μg/disk): 0-0
Mean % Inhibition of Neovascularization ([1]; 0.01 μg/disk): 0%
Inhibition of Neovascularization Grade/Mean ± SD ([1]; 0.01 μg/disk): 0 ± 0
Inhibition of Neovascularization Grade/Range ([1]; 0.1 μg/disk): 0-0
Mean % Inhibition of Neovascularization ([1]; 0.1 μg/disk): 0%
Inhibition of Neovascularization Grade/Mean ± SD ([1]; 0.1 μg/disk): 0 ± 0
Inhibition of Neovascularization Grade/Range ([1]; 1 μg/disk): 0-1
Mean % Inhibition of Neovascularization ([1]; 1 μg/disk): 8 ± 10%
Inhibition of Neovascularization Grade/Mean ± SD ([1]; 1 μg/disk): 0.33 ± 0.49
Inhibition of Neovascularization Grade/Range ([1]; 10 μg/disk): 0-1
Mean % Inhibition of Neovascularization ([1]; 10 μg/disk): 5 ± 10%
Inhibition of Neovascularization Grade/Mean ± SD ([1]; 10 μg/disk): 0.18 ± 0.40
Inhibition of Neovascularization Grade/Range ([1]; 100 μg/disk): 0-2
Mean % Inhibition of Neovascularization ([1]; 100 μg/disk): 18 ± 23%
Inhibition of Neovascularization Grade/Mean ± SD ([1]; 100 μg/disk): 0.67 ± 0.87
Inhibition of Neovascularization Grade/Range ([1]; 500 μg/disk): 0-1
Mean % Inhibition of Neovascularization ([1]; 500 μg/disk): 9 ± 13%
Inhibition of Neovascularization Grade/Mean ± SD ([1]; 500 μg/disk): 0.3 ± 0.48
Inhibition of Neovascularization Grade/Range ([1]; 1000 μg/disk): 0-2
Mean % Inhibition of Neovascularization ([1]; 1000 μg/disk): 18 ± 20%
Inhibition of Neovascularization Grade/Mean ± SD ([1]; 1000 μg/disk): 0.7 ± 0.82

heparin
Inhibition of Neovascularization Grade/Range ([1]; 10 μg/disk): 1-4
Mean % Inhibition of Neovascularization ([1]; 10 μg/disk): 81 ± 18%
Inhibition of Neovascularization Grade/Mean ± SD ([1]; 10 μg/disk): 3.26 ± 0.73
